# Source: the NIST ThermoML archive (doi:10.1016/j.jct.2012.12.022)
# Numbers after ± are expanded uncertainties.
# Assay: mn = molality of the nth substance listed, in mol/kg
# Conditions: 101 kPa, Liquid; for speed of sound: Sing-around technique in a fixed-path interferometer; for mass density: Vibrating tube method
structure (smiles),measurement,setting,value
O=C([O-])CC(O)(CC(=O)[O-])C(=O)[O-].[Na+].[Na+].[Na+] [trisodium citrate] + O,speed of sound,"288.15 K, m1 = 0.00247",1467.4 ± 2.1 m/s
same,speed of sound,"288.15 K, m1 = 0.04871",1479.1 ± 2.1 m/s
same,speed of sound,"288.15 K, m1 = 0.09738",1488.8 ± 2.1 m/s
same,speed of sound,"288.15 K, m1 = 0.201",1509.2 ± 2.1 m/s
same,speed of sound,"288.15 K, m1 = 0.2898",1526.1 ± 2.1 m/s
same,speed of sound,"288.15 K, m1 = 0.3899",1545.2 ± 2.1 m/s
same,speed of sound,"288.15 K, m1 = 0.4966",1565.2 ± 2.1 m/s
same,speed of sound,"288.15 K, m1 = 0.6007",1583.7 ± 2.1 m/s
same,speed of sound,"288.15 K, m1 = 0.7036",1601 ± 2.1 m/s
same,speed of sound,"288.15 K, m1 = 0.7698",1612.3 ± 2.1 m/s
same,speed of sound,"288.15 K, m1 = 0.9013",1636.1 ± 2.1 m/s
same,mass density,"288.15 K, m1 = 0.00247",999.597 ± 0.2 kg/m3
same,mass density,"288.15 K, m1 = 0.04871",1008.4 ± 0.2 kg/m3
same,mass density,"288.15 K, m1 = 0.09738",1017.15 ± 0.2 kg/m3
same,mass density,"288.15 K, m1 = 0.201",1034.85 ± 0.2 kg/m3
same,mass density,"288.15 K, m1 = 0.2898",1049.56 ± 0.21 kg/m3
same,mass density,"288.15 K, m1 = 0.3899",1065.78 ± 0.21 kg/m3
same,mass density,"288.15 K, m1 = 0.4966",1082.16 ± 0.21 kg/m3
same,mass density,"288.15 K, m1 = 0.6007",1097.37 ± 0.21 kg/m3
same,mass density,"288.15 K, m1 = 0.7036",1111.65 ± 0.22 kg/m3
same,mass density,"288.15 K, m1 = 0.7698",1120.84 ± 0.22 kg/m3
same,mass density,"288.15 K, m1 = 0.9013",1138.29 ± 0.22 kg/m3
same,speed of sound,"293.15 K, m1 = 0.00247",1483 ± 2.1 m/s
same,speed of sound,"293.15 K, m1 = 0.04871",1493.7 ± 2.1 m/s
same,speed of sound,"293.15 K, m1 = 0.09738",1503.5 ± 2.1 m/s
same,speed of sound,"293.15 K, m1 = 0.201",1523.4 ± 2.1 m/s
same,speed of sound,"293.15 K, m1 = 0.2898",1540 ± 2.1 m/s
same,speed of sound,"293.15 K, m1 = 0.3899",1558.9 ± 2.1 m/s
same,speed of sound,"293.15 K, m1 = 0.4966",1578 ± 2.1 m/s
same,speed of sound,"293.15 K, m1 = 0.6007",1595 ± 2.1 m/s
same,speed of sound,"293.15 K, m1 = 0.7036",1611.8 ± 2.1 m/s
same,speed of sound,"293.15 K, m1 = 0.7698",1621.3 ± 2.1 m/s
same,speed of sound,"293.15 K, m1 = 0.9013",1643.5 ± 2.1 m/s
same,mass density,"293.15 K, m1 = 0.00247",998.701 ± 0.2 kg/m3
same,mass density,"293.15 K, m1 = 0.04871",1007.39 ± 0.2 kg/m3
same,mass density,"293.15 K, m1 = 0.09738",1016.08 ± 0.2 kg/m3
same,mass density,"293.15 K, m1 = 0.201",1033.45 ± 0.2 kg/m3
same,mass density,"293.15 K, m1 = 0.2898",1047.86 ± 0.21 kg/m3
same,mass density,"293.15 K, m1 = 0.3899",1063.45 ± 0.21 kg/m3
same,mass density,"293.15 K, m1 = 0.4966",1079.75 ± 0.21 kg/m3
same,mass density,"293.15 K, m1 = 0.6007",1094.95 ± 0.21 kg/m3
same,mass density,"293.15 K, m1 = 0.7036",1109.41 ± 0.22 kg/m3
same,mass density,"293.15 K, m1 = 0.7698",1118.51 ± 0.22 kg/m3
same,mass density,"293.15 K, m1 = 0.9013",1135.53 ± 0.22 kg/m3
same,speed of sound,"298.15 K, m1 = 0.00247",1497.2 ± 2.1 m/s
same,speed of sound,"298.15 K, m1 = 0.04871",1507.2 ± 2.1 m/s
same,speed of sound,"298.15 K, m1 = 0.09738",1516.8 ± 2.1 m/s
same,speed of sound,"298.15 K, m1 = 0.201",1536.7 ± 2.1 m/s
same,speed of sound,"298.15 K, m1 = 0.2898",1552.4 ± 2.1 m/s
same,speed of sound,"298.15 K, m1 = 0.3899",1570.2 ± 2.1 m/s
same,speed of sound,"298.15 K, m1 = 0.4966",1587.1 ± 2.1 m/s
same,speed of sound,"298.15 K, m1 = 0.6007",1603.5 ± 2.1 m/s
same,speed of sound,"298.15 K, m1 = 0.7036",1617.6 ± 2.1 m/s
same,speed of sound,"298.15 K, m1 = 0.7698",1628.1 ± 2.1 m/s
same,speed of sound,"298.15 K, m1 = 0.9013",1646 ± 2.1 m/s
same,mass density,"298.15 K, m1 = 0.00247",997.537 ± 0.2 kg/m3
same,mass density,"298.15 K, m1 = 0.04871",1006.09 ± 0.2 kg/m3
same,mass density,"298.15 K, m1 = 0.09738",1014.65 ± 0.2 kg/m3
same,mass density,"298.15 K, m1 = 0.201",1031.8 ± 0.2 kg/m3
same,mass density,"298.15 K, m1 = 0.2898",1046.01 ± 0.21 kg/m3
same,mass density,"298.15 K, m1 = 0.3899",1061.6 ± 0.21 kg/m3
same,mass density,"298.15 K, m1 = 0.4966",1077.6 ± 0.21 kg/m3
same,mass density,"298.15 K, m1 = 0.6007",1092.45 ± 0.21 kg/m3
same,mass density,"298.15 K, m1 = 0.7036",1106.71 ± 0.22 kg/m3
same,mass density,"298.15 K, m1 = 0.7698",1115.58 ± 0.22 kg/m3
same,mass density,"298.15 K, m1 = 0.9013",1132.31 ± 0.22 kg/m3
same,speed of sound,"303.15 K, m1 = 0.00247",1509.6 ± 2.1 m/s
same,speed of sound,"303.15 K, m1 = 0.04871",1519.6 ± 2.1 m/s
same,speed of sound,"303.15 K, m1 = 0.09738",1529 ± 2.1 m/s
same,speed of sound,"303.15 K, m1 = 0.201",1547.8 ± 2.1 m/s
same,speed of sound,"303.15 K, m1 = 0.2898",1562.6 ± 2.1 m/s
same,speed of sound,"303.15 K, m1 = 0.3899",1579 ± 2.1 m/s
same,speed of sound,"303.15 K, m1 = 0.4966",1596.3 ± 2.1 m/s
same,speed of sound,"303.15 K, m1 = 0.6007",1612.2 ± 2.1 m/s
same,speed of sound,"303.15 K, m1 = 0.7036",1626.5 ± 2.1 m/s
same,speed of sound,"303.15 K, m1 = 0.7698",1635.6 ± 2.1 m/s
same,speed of sound,"303.15 K, m1 = 0.9013",1652.1 ± 2.1 m/s
same,mass density,"303.15 K, m1 = 0.00247",996.131 ± 0.2 kg/m3
same,mass density,"303.15 K, m1 = 0.04871",1004.6 ± 0.2 kg/m3
same,mass density,"303.15 K, m1 = 0.09738",1013.09 ± 0.2 kg/m3
same,mass density,"303.15 K, m1 = 0.201",1030.15 ± 0.2 kg/m3
same,mass density,"303.15 K, m1 = 0.2898",1044.34 ± 0.21 kg/m3
same,mass density,"303.15 K, m1 = 0.3899",1059.7 ± 0.21 kg/m3
same,mass density,"303.15 K, m1 = 0.4966",1075.59 ± 0.21 kg/m3
same,mass density,"303.15 K, m1 = 0.6007",1090.27 ± 0.21 kg/m3
same,mass density,"303.15 K, m1 = 0.7036",1104.4 ± 0.22 kg/m3
same,mass density,"303.15 K, m1 = 0.7698",1113.15 ± 0.22 kg/m3
same,mass density,"303.15 K, m1 = 0.9013",1129.69 ± 0.22 kg/m3
